Results reported in ChEMBL document CHEMBL5154804, “Species-Selective Targeting of Fungal Hsp90: Design, Synthesis, and Evaluation of Novel 4,5-Diarylisoxazole Derivatives for the Combination Treatment of Azole-Resistant Candidiasis” (J Med Chem, 2022).
Calls of active or inactive are those of the source. No cut-off for these calls is given here.

Assays:
Candida albicans [1] = assay: Potentiation of fluconazole-induced antifungal activity against fluconazole-resistant Candida albicans 100 assessed as fluconazole MIC by checker board microdilution assay; assay type: functional
Candida albicans [2] = assay: Antifungal activity against fluconazole-resistant Candida albicans 904 assessed as inhibition of fungal growth by checker board microdilution assay; assay type: functional
Candida albicans [3] = assay: Synergistic antibiofilm activity against Candida albicans 904 assessed as inhibition of […] metabolism within the biofilm in presence of fluconazole after 48 hrs by XTT reduction assay; assay type: functional
Candida albicans [4] = assay: Synergetic antifungal activity against fluconazole-resistant Candida albicans 632 assessed as fractional inhibitory concentration index in presence of fluconazole by checker board microdilution assay; assay type: functional
Candida albicans [5] = assay: Antibiofilm activity against Candida albicans 904 assessed as inhibition of […] metabolism within the biofilm after 24 hrs by XTT reduction assay; assay type: functional
Candida albicans [6] = assay: Synergistic antibiofilm activity in Candida albicans 904 assessed as downregulation of TEC1 at 32 ug/ml incubated for 24 hrs in presence of fluconazole by RT-PCR analysis; assay type: functional, organism-based; conditions: dose 32.0 µg/ml
Candida albicans [7] = assay: Induction of morphological changes in Candida albicans 904 assessed as hyphal formation by measuring TEC1 level incubated for 4 hrs in presence of fluconazole; assay type: functional, organism-based
Candida albicans [8] = assay: Synergistic antifungal activity against fluconazole-resistant Candida albicans 103 assessed as inhibition of fungal growth in presence of fluconazole by checker board microdilution assay; assay type: functional
Candida albicans [9] = assay: Synergetic antifungal activity against fluconazole-resistant Candida albicans 904 assessed as fractional inhibitory concentration index in presence of fluconazole by checker board microdilution assay; assay type: functional
Candida albicans [10] = assay: Potentiation of fluconazole-induced antifungal activity against fluconazole-resistant Candida albicans 904 assessed as fluconazole MIC by checker board microdilution assay; assay type: functional
Candida albicans [11] = assay: Antifungal activity against fluconazole-resistant Candida albicans 901 assessed as inhibition of fungal growth by checker board microdilution assay; assay type: functional
Candida albicans [12] = assay: Synergistic antifungal activity against fluconazole-resistant Candida albicans 100 assessed as inhibition of fungal growth in presence of fluconazole by checker board microdilution assay; assay type: functional
Candida albicans [13] = assay: Synergetic antifungal activity against fluconazole-resistant Candida albicans 100 assessed as fractional inhibitory concentration index in presence of fluconazole by checker board microdilution assay; assay type: functional
Candida albicans [14] = assay: Antifungal activity against fluconazole-resistant Candida albicans 311 assessed as inhibition of fungal growth by checker board microdilution assay; assay type: functional
Candida albicans [15] = assay: Synergistic antifungal activity against fluconazole-resistant Candida albicans 311 assessed as inhibition of fungal growth in presence of fluconazole by checker board microdilution assay; assay type: functional
Candida albicans [16] = assay: Fungicidal activity against Candida albicans 904 assessed as colony forming at 4 times MIC in presence of fluconazole incubated for 48 hrs by time-kill curve assay; assay type: functional
[17] = Metabolic stability in human liver microsomes assessed as intrinsic clearance in presence of NADPH cofactor under shaking condition for 10 mins measured after 5 to 60 mins by LC-MS/MS analysis; assay type: ADME, Microsome; conditions: time 15-70 min
[18] = Stability in human plasma assessed as compound remaining at 120 mins by LC-MS/MS analysis; assay type: ADME, cell-free; conditions: read-out: Stability
Candida albicans [19] = assay: Ratio of MFC for Candida albicans 904 to MIC for Candida albicans 904 in presence of fluconazole; assay type: functional
CYP3A4 = CYP3A4 (Homo sapiens, UniProt P08684); assay: Inhibition of CYP3A4 in human liver microsome at 10 uM using midazolam as substrate incubated for 10 mins in presence of NADPH cofactor by LC-MS/MS analysis; assay type: ADME; conditions: liver microsomes, probe midazolam
Candida albicans [20] = assay: Potentiation of fluconazole-induced antifungal activity against fluconazole-resistant Candida albicans 901 assessed as fluconazole MIC by checker board microdilution assay; assay type: functional
CYP1A2 = molecular target: T1, CYP1A2 (Homo sapiens, UniProt P05177); assay: Inhibition of CYP1A2 in human liver microsome at 10 uM using phenacetin as substrate incubated for 10 mins in presence of NADPH cofactor by LC-MS/MS analysis; assay type: ADME; conditions: liver microsomes, probe phenacetin
T1 sequence (P05177 whole entry): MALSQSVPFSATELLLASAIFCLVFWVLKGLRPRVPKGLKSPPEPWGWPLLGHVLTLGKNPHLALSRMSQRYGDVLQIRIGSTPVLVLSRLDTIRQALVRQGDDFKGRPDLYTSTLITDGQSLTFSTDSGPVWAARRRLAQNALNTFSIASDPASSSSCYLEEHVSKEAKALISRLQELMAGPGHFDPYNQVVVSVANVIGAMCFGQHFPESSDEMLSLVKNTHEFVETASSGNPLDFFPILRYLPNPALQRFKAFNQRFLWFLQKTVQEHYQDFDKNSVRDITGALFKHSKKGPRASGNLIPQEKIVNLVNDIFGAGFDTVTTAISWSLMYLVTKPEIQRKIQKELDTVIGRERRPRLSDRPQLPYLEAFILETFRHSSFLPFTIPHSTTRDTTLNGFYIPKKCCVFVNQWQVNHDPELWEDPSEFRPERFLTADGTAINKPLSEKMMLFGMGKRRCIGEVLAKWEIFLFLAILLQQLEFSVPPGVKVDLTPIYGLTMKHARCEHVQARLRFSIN

[21] = Cytotoxicity against mouse BV-2 cell assessed as inhibition of cell growth after 24 hrs by MTT assay; assay type: toxicity, cell-based; conditions: BV-2 cells
HepG2 = assay: Cytotoxicity against human HepG2 cell assessed as inhibition of cell growth after 24 hrs by MTT assay; assay type: functional, cell-based; conditions: HepG2, 24 h
Candida albicans [22] = assay: Antifungal activity against fluconazole-resistant Candida albicans 103 assessed as inhibition of fungal growth by checker board microdilution assay; assay type: functional
[23] = Cytotoxicity against human THLE-2 cell assessed as inhibition of cell growth after 24 hrs by MTT assay; assay type: toxicity, cell-based; conditions: THLE-2 cells
Candida albicans [24] = assay: Antifungal activity against fluconazole-resistant Candida albicans 100 assessed as inhibition of fungal growth by checker board microdilution assay; assay type: functional
A549 = assay: Cytotoxicity against human A549 cell assessed as inhibition of cell growth after 24 hrs by MTT assay; assay type: functional, cell-based; conditions: A549, 24 h
Candida albicans [25] = assay: Synergistic antibiofilm activity against Candida albicans 904 assessed as inhibition of […] metabolism within the biofilm in presence of fluconazole after 24 hrs by XTT reduction assay; assay type: functional
Candida albicans [26] = assay: Fungicidal activity against Candida albicans 904 assessed as colony forming at 4 times MIC incubated for 48 hrs by time-kill curve assay; assay type: functional
CYP2C19 = CYP2C19 (Homo sapiens, UniProt P33261); assay: Inhibition of CYP2C19 in human liver microsome at 10 uM using S-mephenytoin as substrate incubated for 10 mins in presence of NADPH cofactor by LC-MS/MS analysis; assay type: ADME; conditions: liver microsomes, probe S-mephenytoin
Candida albicans [27] = assay: Synergistic antibiofilm activity in Candida albicans 904 assessed as downregulation of CPH1 at 32 ug/ml incubated for 24 hrs in presence of fluconazole by RT-PCR analysis; assay type: functional, organism-based; conditions: dose 32.0 µg/ml
[28] = Metabolic stability in human liver microsomes assessed as compound remaining in presence of NADPH cofactor under shaking condition for 10 mins measured after 60 mins by LC-MS/MS analysis; assay type: ADME, Microsome; conditions: time 70 min, read-out: Stability
[29] = Metabolic stability in human liver microsomes assessed as microsomal intrinsic clearance in presence of NADPH cofactor under shaking condition for 10 mins measured after 5 to 60 mins by LC-MS/MS analysis; assay type: ADME, Microsome; conditions: time 15-70 min

Chain of CYP3A4 (P08684 whole entry): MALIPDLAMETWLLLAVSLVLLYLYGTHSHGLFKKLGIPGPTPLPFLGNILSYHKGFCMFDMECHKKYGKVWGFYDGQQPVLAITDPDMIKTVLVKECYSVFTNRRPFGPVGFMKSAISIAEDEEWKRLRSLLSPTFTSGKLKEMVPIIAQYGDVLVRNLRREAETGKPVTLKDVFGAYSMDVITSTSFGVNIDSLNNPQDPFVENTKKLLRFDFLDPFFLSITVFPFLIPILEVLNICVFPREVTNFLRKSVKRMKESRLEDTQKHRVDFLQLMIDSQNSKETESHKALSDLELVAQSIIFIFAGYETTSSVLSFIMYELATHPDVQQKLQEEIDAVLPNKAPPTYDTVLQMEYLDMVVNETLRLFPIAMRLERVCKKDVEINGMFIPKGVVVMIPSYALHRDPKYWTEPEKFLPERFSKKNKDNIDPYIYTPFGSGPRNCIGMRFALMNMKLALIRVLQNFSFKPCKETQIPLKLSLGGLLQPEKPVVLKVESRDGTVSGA
Chain of CYP2C19 (P33261 whole entry): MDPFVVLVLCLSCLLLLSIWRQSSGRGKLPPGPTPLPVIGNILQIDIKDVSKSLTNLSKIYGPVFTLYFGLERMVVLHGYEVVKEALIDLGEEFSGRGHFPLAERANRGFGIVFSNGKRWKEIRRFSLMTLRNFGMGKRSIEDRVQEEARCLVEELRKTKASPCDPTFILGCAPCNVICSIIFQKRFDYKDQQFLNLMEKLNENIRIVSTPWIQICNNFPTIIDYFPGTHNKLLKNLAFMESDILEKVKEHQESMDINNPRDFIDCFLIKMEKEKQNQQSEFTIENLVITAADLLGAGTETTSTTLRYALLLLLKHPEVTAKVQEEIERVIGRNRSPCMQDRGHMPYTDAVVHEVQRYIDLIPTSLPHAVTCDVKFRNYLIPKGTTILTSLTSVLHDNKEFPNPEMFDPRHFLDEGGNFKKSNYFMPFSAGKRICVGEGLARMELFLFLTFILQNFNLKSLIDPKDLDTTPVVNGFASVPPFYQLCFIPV

## CCNC(=O)c1noc(-c2cc(-c3ccc(C)cc3)c(O)cc2O)c1-c1ccc(CN2CCOCC2)cc1
Candida albicans [1]
  MIC80: 2 µg/mL
Candida albicans [2]
  MIC80: > 64 µg/mL
Candida albicans [3]
  MIC50: 1 µg/mL
Candida albicans [4]
  fractional inhibitory concentration index (FICI): 0.033
Candida albicans [5]
  MIC50: > 64 µg/mL
Candida albicans [6]
  Activity: Active
Candida albicans [7]
  Activity: Active
Candida albicans [8]
  MIC80: 0.25 µg/mL
Candida albicans [9]
  fractional inhibitory concentration index (FICI): 0.035
Candida albicans [10]
  MIC80: 2 µg/mL
Candida albicans [11]
  MIC80: > 64 µg/mL
Candida albicans [12]
  MIC80: 0.125 µg/mL
Candida albicans [13]
  fractional inhibitory concentration index (FICI): 0.033
Candida albicans [14]
  MIC80: > 64 µg/mL
Candida albicans [15]
  MIC80: 0.25 µg/mL
Candida albicans [16]
  MFC: 0.25 µg/mL
[17]
  CLint: 38.9 mL/min/kg
[18]
  remaining at 2 h: 110%
Candida albicans [19]
  Ratio: 1
CYP3A4
  inhibition at 10 min, 10 µM: 36.7%
Candida albicans [20]
  MIC80: 1 µg/mL
CYP1A2
  inhibition at 10 min, 10 µM: 8%
[21]
  IC50 at 24 h: 10.3 µM
HepG2
  IC50: 17.4 µM
Candida albicans [22]
  MIC80: > 64 µg/mL
[23]
  IC50 at 24 h: 7.15 µM
Candida albicans [24]
  MIC80: > 64 µg/mL
A549
  IC50: 13.1 µM
Candida albicans [25]
  MIC50: 0.25 µg/mL
Candida albicans [26]
  MFC: > 64 µg/mL
CYP2C19
  inhibition at 10 min, 10 µM: 22.2%
Candida albicans [27]
  Activity: Active
[28]
  remaining at 1.167 h: 27.4%
[29]
  CLint: 43.2 µL/min/mg

## CNC(=O)c1noc(-c2cc(-c3ccc(C)cc3)c(O)cc2O)c1-c1ccc(CN2CCOCC2)cc1
Candida albicans [1]
  MIC80: 2 µg/mL
Candida albicans [2]
  MIC80: > 64 µg/mL
Candida albicans [3]
  MIC50: 4 µg/mL
Candida albicans [4]
  fractional inhibitory concentration index (FICI): 0.016
Candida albicans [5]
  MIC50: > 64 µg/mL
Candida albicans [6]
  Activity: Active
Candida albicans [7]
  Activity: Active
Candida albicans [8]
  MIC80: 1 µg/mL
Candida albicans [9]
  fractional inhibitory concentration index (FICI): 0.02
Candida albicans [10]
  MIC80: 1 µg/mL
Candida albicans [11]
  MIC80: > 64 µg/mL
Candida albicans [12]
  MIC80: 0.25 µg/mL
Candida albicans [13]
  fractional inhibitory concentration index (FICI): 0.035
Candida albicans [14]
  MIC80: > 64 µg/mL
Candida albicans [15]
  MIC80: 2 µg/mL
Candida albicans [16]
  MFC: 0.5 µg/mL
[17]
  CLint: 50.3 mL/min/kg
[18]
  remaining at 2 h: 92.8%
Candida albicans [19]
  Ratio: 2
CYP3A4
  inhibition at 10 min, 10 µM: 43.2%
Candida albicans [20]
  MIC80: 2 µg/mL
CYP1A2
  inhibition at 10 min, 10 µM: 9.9%
[21]
  IC50 at 24 h: 11.1 µM
HepG2
  IC50: > 50 µM
Candida albicans [22]
  MIC80: > 64 µg/mL
[23]
  IC50 at 24 h: 10.6 µM
Candida albicans [24]
  MIC80: > 64 µg/mL
A549
  IC50: 7.12 µM
Candida albicans [25]
  MIC50: 1 µg/mL
Candida albicans [26]
  MFC: > 64 µg/mL
CYP2C19
  inhibition at 10 min, 10 µM: 18.6%
Candida albicans [27]
  Activity: Active
[28]
  remaining at 1.167 h: 19.1%
[29]
  CLint: 55.9 µL/min/mg
